According to patent US7892789B2, “Method of increasing cell permeability to trehalose by recombinantly producing a trehalose transporter” (priority 2007, dated 2011):

What was measured:
Format in all cases: cell-based
Settings in all cases: 105 mM of trehalose, 3 h
DmTRET1 = biological target: T1, DmTRET1 (Drosophila melanogaster, UniProt A1Z8N1); assay: Trehalose uptake in Xenopus oocytes expressing DmTRET1
T1 construct: ORF of either Tret1, DmTret1, AmTret1, AgTret1 or BmTret1 cDNA was amplified with PCR; expressed in transfected cells; host or cells: Xenopus laevis oocytes injected with cRNA
T1 sequence (A1Z8N1 352-857): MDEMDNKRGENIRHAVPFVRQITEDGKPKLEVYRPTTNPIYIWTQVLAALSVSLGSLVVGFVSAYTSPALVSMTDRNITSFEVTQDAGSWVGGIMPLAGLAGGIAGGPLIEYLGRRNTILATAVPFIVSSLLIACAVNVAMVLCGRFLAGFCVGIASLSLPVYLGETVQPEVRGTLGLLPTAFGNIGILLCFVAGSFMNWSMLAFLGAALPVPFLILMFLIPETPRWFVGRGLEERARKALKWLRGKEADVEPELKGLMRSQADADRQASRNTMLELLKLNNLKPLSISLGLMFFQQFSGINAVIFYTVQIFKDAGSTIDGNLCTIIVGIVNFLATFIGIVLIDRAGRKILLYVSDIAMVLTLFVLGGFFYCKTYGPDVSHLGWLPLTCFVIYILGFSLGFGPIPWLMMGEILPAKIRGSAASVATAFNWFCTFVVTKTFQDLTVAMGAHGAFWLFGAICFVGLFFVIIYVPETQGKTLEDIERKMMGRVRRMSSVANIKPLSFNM
Text: (§1) The capped RNA (cRNA) expression vector pTRET1-XbG-ev1 series was constructed as follows: ORF of either Tret1, DmTret1, AmTret1, AgTret1 or BmTret1 cDNA was amplified with PCR using specific primers containing Bgl II site at the 5′-end on each primer, respectively. The PCR products were digested with the restriction enzymes, and cloned into the site of Bgl II in pXbG-ev1 (Preston, G. M., et al. (1992) Science 256, 385-387). ORF of hGLUT1 cDNA was obtained by digestion of pSPMM1 with BamH I, and then subcloned into the site of Bgl II in pXbG-2. Template DNAs for cRNA synthesis were amplified from the corresponding cRNA expression vectors with a high fidelity DNA polymerase, KOD—Plus—, (TOYOBO). The cRNAs were synthesized with mMESSAGE mMACHINE T7 Kit (Ambion), and then purified with RNeasy MiniElute Cleanup kit (Qiagen).
(§2) All uptake assays for zero-trans trehalose and/or other sugars were performed using Xenopus oocytes expressing TRET1 at 15° C. in MBS containing appropriate concentrations of sugars. Sugar concentrations were determined using HPLC (Watanabe, M., et al. (2002) J Exp Biol 205, 2799-2802). All assays were carried out in triplicate. […] (data not shown).
(§3) Likewise, whether these Tret1-orthologs have trehalose transport activity was examined using the Xenopus oocyte expression system incubated in 105 mM of trehalose for 3 h.

AmTRET1 = biological target: T2, AmTRET1 (Apis mellifera ligustica, UniProt A9ZSY2); assay: Trehalose uptake in Xenopus oocytes expressing AmTRET1
T2 construct: ORF of either Tret1, DmTret1, AmTret1, AgTret1 or BmTret1 cDNA was amplified with PCR; expressed in transfected cells; host or cells: Xenopus laevis oocytes injected with cRNA
T2 sequence (A9ZSY2 1-502): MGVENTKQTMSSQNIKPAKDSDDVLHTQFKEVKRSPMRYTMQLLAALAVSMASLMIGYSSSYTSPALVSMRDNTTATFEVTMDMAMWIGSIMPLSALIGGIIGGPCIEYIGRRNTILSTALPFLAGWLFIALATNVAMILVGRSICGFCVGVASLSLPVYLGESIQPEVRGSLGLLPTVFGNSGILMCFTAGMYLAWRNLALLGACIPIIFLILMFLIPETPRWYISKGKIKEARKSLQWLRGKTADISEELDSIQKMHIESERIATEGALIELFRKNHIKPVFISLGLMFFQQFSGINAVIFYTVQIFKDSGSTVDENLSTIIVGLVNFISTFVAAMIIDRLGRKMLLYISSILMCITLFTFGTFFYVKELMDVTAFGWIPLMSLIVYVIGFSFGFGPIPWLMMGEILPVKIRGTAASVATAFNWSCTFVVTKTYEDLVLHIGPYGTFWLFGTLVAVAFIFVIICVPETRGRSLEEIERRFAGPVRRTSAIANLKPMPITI
Text: as §1, §2, §3

AgTRET1 = biological target: T3, AgTRET1 (Anopheles gambiae, UniProt Q7PIR5); assay: Trehalose uptake in Xenopus oocytes expressing AgTRET1
T3 construct: ORF of either Tret1, DmTret1, AmTret1, AgTret1 or BmTret1 cDNA was amplified with PCR; expressed in transfected cells; host or cells: Xenopus laevis oocytes injected with cRNA
T3 sequence (Q7PIR5 290-793): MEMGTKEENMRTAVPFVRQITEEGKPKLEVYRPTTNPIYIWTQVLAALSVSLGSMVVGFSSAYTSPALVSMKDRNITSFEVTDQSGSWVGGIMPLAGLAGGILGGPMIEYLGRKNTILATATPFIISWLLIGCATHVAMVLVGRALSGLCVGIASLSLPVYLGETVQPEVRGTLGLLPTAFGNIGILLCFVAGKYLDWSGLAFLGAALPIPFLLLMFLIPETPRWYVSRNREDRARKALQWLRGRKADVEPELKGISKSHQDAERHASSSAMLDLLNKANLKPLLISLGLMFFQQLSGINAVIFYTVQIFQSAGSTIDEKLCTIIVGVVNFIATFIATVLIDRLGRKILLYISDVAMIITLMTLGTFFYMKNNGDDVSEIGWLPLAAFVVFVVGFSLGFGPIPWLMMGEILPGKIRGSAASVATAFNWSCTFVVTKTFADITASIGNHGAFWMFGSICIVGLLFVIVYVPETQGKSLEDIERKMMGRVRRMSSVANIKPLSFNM
Text: as §1, §2, §3

Measured: trehalose transport activity

OC[C@H]1O[C@H](O[C@H]2O[C@H](CO)[C@@H](O)[C@H](O)[C@H]2O)[C@H](O)[C@@H](O)[C@@H]1O [trehalose]
showed trehalose transport activity: all assays above
